This is an account of results in patent publication EP0966282B1, “USE OF THE ANGIOTENSIN II ANTAGONISTS LOSARTAN AND EXP-3174 TO TREAT SYMPTOMATIC HEART FAILURE” (priority 1997, dated 1998).

Molecules are shown by their SMILES. Marks after values point to notes of the source that are not given here.

Test [1] relates to patients with symptomatic heart failure. Nature of the test: Exercise study Protocol A: 12-week placebo-controlled study of losartan, clinical events. Format: in vivo. As to conditions: for CHF Hospitalization (during DB) / Death: 12 weeks; for CHF Hospitalization (during DB): one patient hospitalized 2 days after discontinuation included; for Death: during double-blind therapy or related to SAE during double-blind. An excerpt:
(§1) Protocols A & B were, multicenter, double-blind, randomized, parallel, placebo-controlled studies to investigate the effects of losartan on the exercise capacity and clinical status of patients over the age of 18 with symptomatic heart failure.
(§2) Approximately three hundred and fifty (350) patients with symptomatic heart failure (NYHA Functional Class II-IV, at least 50% Class III-IV) and left ventricular ejection fraction ≤40% were randomized to receive either losartan or placebo once daily for 12 weeks in each study. Following a minimum 15-day baseline placebo period, during which a minimum of 5 and maximum of 8 sets of baseline exercise tests (treadmill exercise test and 6-minute walk test) were performed, patients were randomized to treatment with losartan or placebo in a 2:1 ratio, respectively. According to the protocol's, patients must not have received an ACE-inhibitor for at least 6 weeks prior to the third baseline exercise test visit. Treatment with an ACE-inhibitor was not allowed at any time during these studies.
(§3) This report summarizes the results of the Meta-analysis performed (as proposed in the Data Analysis Plan) on the observed mortality and congestive heart failure (CHF) hospitalization across these two studies. The mortality and CHF hospitalization were not predefined endpoints in the protocols but it was intended that they be analyzed as a part of safety. Thus results from these analyses should not be interpreted as a test of significance as there were no predefined hypotheses corresponding to these safety parameters. […] Odds ratio's with 95% confidence intervals have been provided for these variables.
(§4) Peto-modified Mantel-Haenszel (Fleiss, J.L., Statistical Methods for Rates and Proportions, Wiley, NY, 1981.) method was used to carry out the Meta-analysis of death and CHF hospitalization rates in the two 12 week exercise studies. This method assumes homogeneity across the studies and provides a test for heterogeneity.
A total of three hundred and fifty one (351) patients were enrolled in the protocol A study; 237 patients were randomized to receive losartan and 114 patients were randomized to receive placebo. There were 4 (3.5%) deaths in the placebo group as compared to 4 (1.7%) in the losartan group during the double-blind therapy or as related to serious adverse events (AE) during double-blind. Additionally there were 10 (8.8%) CHF hospitalizations in the placebo group as compared to 10 (4.2%) in the losartan group during the double-blind therapy or as related to serious AE during double-blind. One patient included in the losartan group discontinued due to worsening HF and was hospitalized 2 days after discontinuation from double-blind period.

Test [2] has the same test system. Nature of the test: Exercise study Protocol B: 12-week placebo-controlled study of losartan, clinical events. As to conditions: for CHF Hospitalization (during DB) / Death: 12 weeks; for Death: during double-blind therapy or related to Serious AE during double-blind. Format: in vivo.
Description: as §1, §2, §3, §4
A total of three hundred and eighty five (385) patients were enrolled in the protocol B exercise study; 254 patients were randomized to receive losartan and 131 patients were randomized to receive placebo. There were 9 (6.9%) deaths in the placebo group as compared to 3 (1.2%) in the losartan group during the double-blind therapy or as related to serious AE during double-blind. Additionally there were 7 (5.3%) CHF hospitalizations in the placebo group as compared to 5 (2.0%) in the losartan group during the double-blind therapy or as related to serious AE during double-blind.

The mark [3] stands for this setting: number of patients of 237 randomized to losartan.
[4] abbreviates: odds in placebo group relative to losartan group.
[5] abbreviates: number of patients of 254 randomized to losartan.

Regarding `CCCCc1nc(Cl)c(CO)n1Cc1ccc(-c2ccccc2-c2nn[nH]n2)cc1` [Losartan], the “CHF Hospitalization (during DB)” value in test [1] came to 4.2%^a; in test [1] (listed as losartan), 4.2%; in test [2], 2.0%; in test [2] (listed as losartan), 2.0%. The Death stood at 1.7% in test [1], 1.7% in test [1] (listed as losartan), 1.2% in test [2] and 1.2% in test [2] (listed as losartan). Moreover, the CHF hospitalizations was 10 in test [1] (setting [3]) and 5 in test [2] (setting [5]). The deaths in test [1] (setting [3]) was 4; in test [2] (setting [5]), 3. Besides, the “CHF Hospitalization, Odds Ratio” value in test [1] (setting [4]) amounted to 2.2; in test [2] (setting [4]), 2.7. The “Death, Odds Ratio” value in test [1] (setting [4]) was 2.1; in test [2] (setting [4]) it was 5.6*; in test [2] (odds in placebo group relative to losartan group, listed as losartan) it was 5.6.
